Reference: ChEMBL document CHEMBL1201862, “PubChem BioAssay data set” (2004)
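Assay format: 96-well plates, 48-hour exposure. GI50 marks 50% less growth.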 Activity calls are given as the source filed them. No stated cut-off is given here; in the data, active = GI50 up to about 1.1 µM and inactive = higher. Starred links: 1 amine or outer side, 2 acyl side, 3 side chain; linkers in the order of their positions; H or OH if unused. Non-standard residues stand in square brackets, D forms with d. Residues, ends and D or L forms follow the SMILES beside them. *: point of attachment. X47 = CCC(=O)CC1CC(C)CC(C(=O)[*:2])N1[*:1]; X46 = CCCCCCCCC(C)C(=O)*; Aib = CC(C)(N)C(=O)O; X48 = CC(CN(C)CCO)N*

What was measured:
Assay in all cases: NCI tumour cell line growth inhibition, 48 h
SK-MEL-5 = test system: SK-MEL-5
OVCAR-4 = test system: OVCAR-4
CAKI-1 = test system: CAKI-1
CCRF-CEM = test system: CCRF-CEM
UACC-257 = test system: UACC-257
HOP-62 = test system: HOP-62
HCT-15 = test system: HCT-15
SNB-19 = test system: SNB-19
SW-620 = test system: SW-620
M14 = test system: M14
UACC-62 = test system: UACC-62
SF-268 = test system: SF-268
HT-29 = test system: HT-29
786-0 = test system: 786-0
SK-OV-3 = test system: SK-OV-3
KM12 = test system: KM12
IGROV-1 = test system: IGROV-1
K562 = test system: K562
RXF 393 = test system: RXF 393
OVCAR-3 = test system: OVCAR-3

SMILES: c1ccc(-c2ccc(-c3ccc(C4=NCCN4)cc3)o2)cc1
- GI50 (SK-MEL-5): 2.08 µM (inactive)
- GI50 (OVCAR-4): 6.11 µM (inactive)
- GI50 (CAKI-1): 2.34 µM (inactive)
- GI50 (CCRF-CEM): 1.56 µM (inactive)
- GI50 (UACC-257): 2.15 µM (inactive)
- GI50 (HOP-62): 3.67 µM (inactive)
- GI50 (HCT-15): 1.87 µM
- GI50 (SNB-19): 2.4 µM (inactive)
- GI50 (SW-620): 2 µM (inactive)
- GI50 (M14): 1.68 µM (inactive)
- GI50 (UACC-62): 1.77 µM (inactive)
- GI50 (SF-268): 2.8 µM (inactive)
- GI50 (HT-29): 1.77 µM (inactive)
- GI50 (786-0): 1.68 µM (inactive)
- GI50 (SK-OV-3): 5.36 µM (inactive)
- GI50 (KM12): 1.92 µM (inactive)
- GI50 (IGROV-1): 2.74 µM (inactive)
- GI50 (K562): 1.42 µM (inactive)
- GI50 (RXF 393): 2.56 µM (inactive)
- GI50 (OVCAR-3): 5.5 µM (inactive)

SMILES: O=C1C2C3CC(C4C5C=CC(C5)C34)C2C2C3CC(C12)C1C2C=CC(C2)C31 (stereo not given)
- GI50 (SK-MEL-5): > 100 µM (inactive)
- GI50 (OVCAR-4): > 100 µM (inactive)
- GI50 (CAKI-1): > 100 µM (inactive)
- GI50 (CCRF-CEM): 61.4 µM (inactive)
- GI50 (UACC-257): > 100 µM (inactive)
- GI50 (HOP-62): > 100 µM (inactive)
- GI50 (HCT-15): > 100 µM
- GI50 (SNB-19): > 100 µM (inactive)
- GI50 (SW-620): 20.8 µM (inactive)
- GI50 (M14): > 100 µM (inactive)
- GI50 (UACC-62): > 100 µM (inactive)
- GI50 (SF-268): 90.8 µM (inactive)
- GI50 (HT-29): > 100 µM (inactive)
- GI50 (786-0): > 100 µM (inactive)
- GI50 (SK-OV-3): > 100 µM (inactive)
- GI50 (KM12): > 100 µM (inactive)
- GI50 (IGROV-1): > 100 µM (inactive)
- GI50 (K562): > 100 µM (inactive)
- GI50 (RXF 393): > 100 µM (inactive)
- GI50 (OVCAR-3): > 100 µM (inactive)

SMILES: C=C1c2nc3ccccc3n2C=C(c2ccc(OC)cc2)N1c1ccccc1
- GI50 (SK-MEL-5): 3.99 µM (inactive)
- GI50 (OVCAR-4): 17.9 µM (inactive)
- GI50 (CAKI-1): 37.8 µM (inactive)
- GI50 (CCRF-CEM): 3.66 µM (inactive)
- GI50 (UACC-257): 13.3 µM (inactive)
- GI50 (HOP-62): 36.8 µM (inactive)
- GI50 (HCT-15): 3.1 µM
- GI50 (SNB-19): 11.3 µM (inactive)
- GI50 (SW-620): 3.66 µM (inactive)
- GI50 (M14): 4.43 µM (inactive)
- GI50 (UACC-62): 3.67 µM (inactive)
- GI50 (SF-268): 50 µM (inactive)
- GI50 (HT-29): 9.68 µM (inactive)
- GI50 (786-0): 6.11 µM (inactive)
- GI50 (SK-OV-3): 47.8 µM (inactive)
- GI50 (KM12): 2.62 µM (inactive)
- GI50 (IGROV-1): 5.85 µM (inactive)
- GI50 (K562): 2.62 µM (inactive)
- GI50 (RXF 393): 6.71 µM (inactive)
- GI50 (OVCAR-3): 6.62 µM (inactive)

SMILES: COc1ccc(CCc2ccc3c(c2)OCO3)cc1
- GI50 (SK-MEL-5): 34.9 µM (inactive)
- GI50 (OVCAR-4): 68.7 µM (inactive)
- GI50 (CAKI-1): 75.5 µM (inactive)
- GI50 (CCRF-CEM): 35.9 µM (inactive)
- GI50 (UACC-257): 77.1 µM (inactive)
- GI50 (HOP-62): > 100 µM (inactive)
- GI50 (HCT-15): 35.2 µM
- GI50 (SNB-19): > 100 µM (inactive)
- GI50 (SW-620): 32.8 µM (inactive)
- GI50 (M14): 49.8 µM (inactive)
- GI50 (UACC-62): > 100 µM (inactive)
- GI50 (SF-268): > 100 µM (inactive)
- GI50 (HT-29): 28.7 µM (inactive)
- GI50 (786-0): > 100 µM (inactive)
- GI50 (SK-OV-3): > 100 µM (inactive)
- GI50 (KM12): 29.2 µM (inactive)
- GI50 (IGROV-1): 70.5 µM (inactive)
- GI50 (K562): 38.5 µM (inactive)
- GI50 (RXF 393): 21.9 µM (inactive)
- GI50 (OVCAR-3): 31.6 µM (inactive)

SMILES: NC(=S)NNC(=O)CCC(=O)Nc1ccc(Cl)cc1Cl
- GI50 (SK-MEL-5): 62.7 µM (inactive)
- GI50 (OVCAR-4): > 100 µM (inactive)
- GI50 (CAKI-1): > 100 µM (inactive)
- GI50 (CCRF-CEM): > 100 µM (inactive)
- GI50 (UACC-257): > 100 µM (inactive)
- GI50 (HOP-62): > 100 µM (inactive)
- GI50 (HCT-15): 50.4 µM
- GI50 (SNB-19): > 100 µM (inactive)
- GI50 (SW-620): > 100 µM (inactive)
- GI50 (M14): 37.1 µM (inactive)
- GI50 (UACC-62): 29.9 µM (inactive)
- GI50 (SF-268): > 100 µM (inactive)
- GI50 (HT-29): > 100 µM (inactive)
- GI50 (786-0): > 100 µM (inactive)
- GI50 (SK-OV-3): > 100 µM (inactive)
- GI50 (KM12): > 100 µM (inactive)
- GI50 (IGROV-1): > 100 µM (inactive)
- GI50 (K562): 17.7 µM (inactive)
- GI50 (RXF 393): > 100 µM (inactive)
- GI50 (OVCAR-3): > 100 µM (inactive)

SMILES: CCCCCCCCC(C)C(=O)N1CCCC1C(=O)N1C(CC(=O)CC)CC(C)CC1C(=O)NC(C)C(=O)NC(C)(C)C(=O)NC(C)(C)C(=O)NC(C(=O)NC(C)C(=O)NC(C)(C)C(=O)NC(C)(C)C(=O)NC(C)CN(C)CCO)C(C)CC (stereo not given) (X46-P[X47]A[Aib][Aib]IA[Aib][Aib]-X48; configuration not given here)
- GI50 (SK-MEL-5): < 0.0135 µM (active)
- GI50 (OVCAR-4): < 0.0118 µM (active)
- GI50 (CAKI-1): 0.818 µM (active)
- GI50 (CCRF-CEM): < 0.0183 µM (active)
- GI50 (UACC-257): < 0.01 µM (active)
- GI50 (HOP-62): 0.116 µM (active)
- GI50 (HCT-15): 0.406 µM
- GI50 (SNB-19): 0.214 µM (active)
- GI50 (SW-620): 0.0794 µM (active)
- GI50 (M14): 0.593 µM (active)
- GI50 (UACC-62): 1.89 µM (inactive)
- GI50 (SF-268): 0.581 µM (active)
- GI50 (HT-29): 0.0261 µM (active)
- GI50 (786-0): 0.106 µM (active)
- GI50 (SK-OV-3): 1.19 µM (inactive)
- GI50 (KM12): 0.142 µM (active)
- GI50 (IGROV-1): 0.221 µM (active)
- GI50 (K562): < 0.01 µM (active)
- GI50 (RXF 393): 1.85 µM (inactive)
- GI50 (OVCAR-3): < 0.01 µM (active)

SMILES: NC(=O)c1cc([N+](=O)[O-])cc([N+](=O)[O-])c1 [NITROMIDE]
- GI50 (SK-MEL-5): > 100 µM (inactive)
- GI50 (OVCAR-4): > 100 µM (inactive)
- GI50 (CAKI-1): > 100 µM (inactive)
- GI50 (CCRF-CEM): > 100 µM (inactive)
- GI50 (UACC-257): > 100 µM (inactive)
- GI50 (HOP-62): > 100 µM (inactive)
- GI50 (HCT-15): > 100 µM
- GI50 (SNB-19): > 100 µM (inactive)
- GI50 (SW-620): > 100 µM (inactive)
- GI50 (M14): > 100 µM (inactive)
- GI50 (UACC-62): 96.8 µM (inactive)
- GI50 (SF-268): > 100 µM (inactive)
- GI50 (HT-29): > 100 µM (inactive)
- GI50 (786-0): > 100 µM (inactive)
- GI50 (SK-OV-3): > 100 µM (inactive)
- GI50 (KM12): > 100 µM (inactive)
- GI50 (IGROV-1): > 100 µM (inactive)
- GI50 (K562): > 100 µM (inactive)
- GI50 (RXF 393): > 100 µM (inactive)
- GI50 (OVCAR-3): > 100 µM (inactive)
